Assays:
aged MuSCs = experiment: Aged MuSC proliferation in culture; assay type: cell-based, mouse
Experimental: Muscle stem cell culture, treatment and lentiviral infection: Following isolation, we resuspended MuSCs in myogenic cell culture medium containing DMEM/F10 (50:50), 15% FBS, 2.5 ng ml^−1 fibroblast growth factor-2 (FGF-2 also known as bFGF) and 1% penicillin-streptomycin. We seeded MuSC suspensions at a density of 500 cells per cm^2 surface area. We maintained cell cultures at 37° C. in 5% CO2 and changed medium daily. For PGE2, 15-PGDH inhibitor and EP4 receptor antagonist treatment studies, we added 1-200 ng/ml Prostaglandin E2 (Cayman Chemical) (unless specified in the figure legends, 10 ng/ml was the standard concentration used), and/or 1 μM EP4 antagonist (ONO-AE3-208, Cayman Chemical), or 1 μM 15-PGDH inhibitor (SW033291, Cayman Chemical) to the MuSCs cultured on collagen coated dishes for the first 24 h. The cells were then trypsinized and cells reseeded onto hydrogels for an additional 6 days of culture. All treatments were compared to their solvent (DMSO) vehicle control. For stripped serum assays, we resuspended isolated MuSCs in medium containing DMEM/F10 (50:50), 15% charcoal stripped FBS (Gibco, cat #12676011), 2.5 ng ml^−1 bFGF and 1% penicillin-streptomycin. […]
Proliferation assays: To assay proliferation, we used three different assays (hemocytometer, VisionBlue, and EdU). […] For hemocytometer cell number count, we collected cells at indicated timepoints by incubation with 0.5% trypsin in PBS for 5 min at 37° C. and quantified them using a hemocytometer at least 3 times. Additionally, we used the VisionBlue Quick Cell Viability Fluorometric Assay Kit (BioVision, catalog #K303) as a readout for cell growth in culture. Briefly, we incubated MuSCs with 10% VisionBlue in culture medium for 3 h, and measured fluorescence intensity on a fluorescence plate reader (Infinite M1000 PRO, Tecan) at Ex=530-570 nm, Em=590-620 nm. […] We quantified EdU positive cells using the MetaMorph Image Analysis software (Molecular Devices). Data analyses were blinded, where researchers performing cell scoring were unaware of the treatment condition given to sample groups analyzed.

[1] = tested on: cyclic AMP levels in MuSCs; experiment: cAMP activity assay (cAMP-Glo); assay type: cell-based, mouse; conditions: PGE2 10 ng/ml, 1 hr
Experimental: cAMP activity assay: MuSCs were treated with DMSO (vehicle) or PGE2 (10 ng/ml) for 1 h and cyclic AMP levels measured according to the cAMP-Glo Assay protocol optimized by the manufacturer (Promega). Each sample was assayed in triplicate and in two independent experiments.
MuSCs were treated with DMSO (vehicle) or PGE2 (10 ng/ml) for 1 h and cyclic AMP levels measured according to the cAMP-Glo Assay protocol optimized by the manufacturer (Promega). Each sample was assayed in triplicate and in two independent experiments.

MuSCs = experiment: Clonal MuSC proliferation by time-lapse microscopy (38 h); assay type: cell-based, mouse; conditions: PGE2 24 hr
Experimental: We assayed clonal muscle stem cell proliferation by time-lapse microscopy as previously described (26, 27). […] Cells were then trypsinized and reseeded at a density of 500 cells per cm^2 surface area in hydrogel microwells with 600 μm diameter. For time-lapse microscopy we monitored cell proliferation for those wells with single cells for 38 h days after seeding and recorded images every 3 min at 10× magnification using a PALM/AxioObserver Z1 system (Carl Zeiss MicroImaging) with a custom environmental control chamber and motorized stage. We analyzed time-lapse image sequences using the Baxter Algorithms for Cell Tracking and Lineage Reconstruction to identify and track single cells and generate lineage trees (26-28, 51, 52). Viable and dead cells were distinguished in time-lapse sequences based on phase-contrast boundary and motility maintenance or loss, respectively. […] The data analysis was blinded. The researchers performing the imaging acquisition and scoring were unaware of the treatment condition given to sample groups analyzed. Clonal muscle stem cell proliferation and fate analyses: […] Cells were then trypsinized and reseeded at a density of 500 cells per cm^2 surface area in hydrogel microwells with 600 μm diameter. For time-lapse microscopy we monitored cell proliferation for those wells with single cells for 38 h days after seeding and recorded images every 3 min at 10× magnification using a PALM/AxioObserver Z1 system (Carl Zeiss MicroImaging) with a custom environmental control chamber and motorized stage. We analyzed time-lapse image sequences using the Baxter Algorithms for Cell Tracking and Lineage Reconstruction to identify and track single cells and generate lineage trees (26-28, 51, 52). Viable and dead cells were distinguished in time-lapse sequences based on phase-contrast boundary and motility maintenance or loss, respectively. […] The data analysis was blinded. The researchers performing the imaging acquisition and scoring were unaware of the treatment condition given to sample groups analyzed.

[2] = PGE2 20 μg (or 4 mg/kg); cited from earlier work

CCCCC[C@H](O)/C=C/[C@H]1[C@H](O)CC(=O)[C@@H]1C/C=C\CCCC(=O)O [PGE2, prostaglandin E2]
aged MuSC proliferation in charcoal stripped serum medium (aged MuSCs; PGE2 10 ng/ml every two days for 7 days): rescued by addition of PGE2 alone
aged MuSC proliferation and Pax7 expression after 1-day pulse (aged MuSCs; PGE2 10 ng/ml or SW033291 1 μM, 24 hr, assayed at day 7): characteristic increase in proliferation and maintenance of Pax7 expression
intracellular cAMP levels [1]: elevated downstream intracellular cyclic AMP (cAMP) levels
cell sizes of tracked MuSCs (MuSCs): increase in the incidence of larger cell sizes
total cells at the end of the 38 h timespan vs vehicle (MuSCs): almost twice the number of total cells
entry into mitosis post-plating (MuSCs; 38 h tracking): entry into mitosis is accelerated
cumulative cell divisions and cell numbers of MuSC clones (MuSCs; 38 h tracking, young MuSCs): marked increase in cumulative cell divisions and cell numbers
tolerability of proposed maximum dose in rodents [2]: without deleterious effects
